The source of these data is patent US8022235B2, “Compositions of phospholipid ether boronic acids and esters and methods for their synthesis and use” (Cellectar, Inc., priority 2007, dated 2011).

The target of one data set is T1, albumin fraction (Rattus norvegicus, UniProt P02770).
T1 construct: plasma was isolated from Walker-256 tumor-bearing rats; from tissue; host or cells: plasma of Walker-256 tumor-bearing rats
Put plainly: PAGE analysis of plasma radioactivity distribution after iodine-125 labeled 1. Type of data set: in vivo, Walker-256 tumor-bearing rats. Conditions: plasma 7 days after administration. The source says: In order to examine the transport properties of PLE analogs, plasma was isolated from Walker-256 tumor-bearing rats 7 days after administration of iodine-125 labeled 1. The distribution of radioactivity in the plasma compartment of a rat receiving 1 (NM404) was studied.

In the next data set the test system is Adrenal H-295. Kind of data set: Imaging and tissue distribution, tumor model. Type of data set: in vivo, SCID Mouse. The conditions noted are these: Adenocarcinoma.
The next data set in a line: Blood plasma kinetics. The conditions noted are these: rat, in vivo. Set-up: species or system rats.
Data set [1] is described as follows: Toxicology studies of unlabeled NM404 in rabbits. Type of data set: in vivo. Conditions: for toxic effects: 14 days observation. The source says:
(§1) In preparation for human clinical trials, unlabeled NM404 was subjected to independent (University of Buffalo Toxicology Research Center) acute toxicity evaluation at 1200 times the anticipated imaging mass dose in rats and rabbits. […] Due to its selective tumor uptake and retention properties in a variety of rodent tumor models and subsequent excellent safety profile in rats and rabbits, NM404 was selected to undergo initial human pharmacokinetic evaluation in non-small cell lung cancer (NSCLC) patients. Patients underwent planar gamma-camera scintigraphy after receiving an injection of ^131I-NM404 (<1 mCi).
(§2) Formal toxicology studies of NM404 in male rats and rabbits were performed at the Toxicology Research Center of the State University of New York at Buffalo under the direction of Dr. Paul Kostyniak. Drug vehicle and drug product were provided to Dr. Kostyniak by Dr. Raymond Counsell of the University of Michigan for testing as described in the appended synopses of Study 27 and Study 28. […] Human safety studies of unlabeled NM404 were initiated in normal male humans at a mass of 10 times the anticipated imaging dose and about 21 times the anticipated therapy dose. […] This toxicology study was performed under GLP conditions.
(§3) Subsequently, the inventors initiated a toxicology study of unlabeled NM404 in female rats and rabbits (Study 31 and Study 32) at the Toxicology Research Center at SUNY-Buffalo in order to expand the patient population to be studied in the NSCLC Phase 1 clinical trial. […] Human safety studies of unlabeled NM404 were initiated in normal female humans at a mass of 10 times the initially anticipated imaging dose and about 21 times the anticipated therapy dose. […] This toxicology study was performed under GLP conditions.

A further data set has as its system Ovarian HTB-77. Put plainly: Imaging and tissue distribution, tumor model. The conditions noted are these: Adenocarcinoma. Type of data set: in vivo, Nude Mouse.
In data set [2] the test system is human PC-3 prostate tumor xenografts. Kind of data set: Scintigraphy, microPET and tissue distribution in PC-3 tumor model. The conditions noted are these: metastatic prostate tumor model, scintigraphy, FIG. 9. The data set is classed as in vivo, SCID mice.
In the next data set the test system is SCC1 and 6. Put plainly: Imaging and tissue distribution, tumor model; tumor regression. The data set is classed as in vivo. Conditions: Squamous cell carcinoma. The source says:
During the course of mouse tumor uptake and retention studies with “imaging” doses (15-20 μCi/20 g mouse) of ^125I-labeled NM404, several apparent therapeutic responses have been observed (unpublished results). […] Some of these animals also lost all hair above larger mammary tumors at around 8 days after injection. Moreover, these mice also get intestinal tumors and usually suffer from intestinal bleeding resulting in severe anemia, which renders their feet white. […] Another compelling example of tumor regression is illustrated in FIG. 13. Two litter mates each received SCC1 and SCC6 xenografts in their left and right flanks, respectively. One mouse received a single injection of ^125I-NM404 (20 μCi). […] These coincidental findings were reconfirmed in two separate age-matched groups each involving more than 6 mice.

Another data set deals with Mammary MCF-7. Put plainly: Imaging and tissue distribution, tumor model. Type of data set: in vivo, Rat. The conditions noted are these: Adenocarcinoma.
In a further data set the test system is TRAMP prostate. Kind of data set: Imaging and tissue distribution, tumor model. The data set is classed as in vivo, Spontaneous mouse. Conditions: Adenocarcinoma.
Data set [3] can be described thus: Toxicology studies of unlabeled NM404 in rats. Conditions: for toxic effects: 14 days observation. Type of data set: in vivo.
Source text: as §1, §2, §3

The next data set deals with Prostate MatLyLu. Put plainly: Gamma camera scintigraphy screen in Dunning R3327 (MAT LyLu) prostate cancer model. The data set is classed as in vivo, Copenhagen rats. Here is the method: The avidity of PLE and APC analogs to localize in tumors was evaluated in several animal models. The PC-3 model represents a human tumor cell line that was used to determine the target (tumor) to non-target ratio of NM404 and NM412 in head to head comparison in order to select a candidate for an initial human pharmacokinetic trial in prostate cancer patients. The MatLyLu (Dunning R3327 rat) model, a rat prostate tumor line, was used specifically to screen 9 specific analogs prior to entering them into control for dosimetry and tumor-bearing animals for determining tumor/background ratios. Finally, the Walker-256 carcinosarcoma model was used for quantitative tissue distribution purposes.
In order to expedite the screening process and minimize the number of tumor bearing animals utilized in multiple time point tissue distribution studies, new radioiodinated homologs were imaged by gamma camera scintigraphy in the rat Dunning […] (MAT LyLu strain) prostate cancer model. Thus, male Copenhagen rats received a subcutaneous injection of MAT LyLu cells (1×10^6 cells) in the thigh 10-14 days prior to injection of the radioiodinated PLE analogs (30-40 μCi) in 2% Tween-20 solution. Gamma camera images were obtained at multiple time points including 24 and 48 hours post injection. […] Tissue distribution of radioactivity in rats bearing Walker-256 carcinosarcoma was assessed at various time intervals following intravenous administration of the radioiodinated chain length homologs. The first group of compounds that was tested included three alkylphosphocholines: a shorter chain analog with seven carbons NM396 and two analogs with a longer chain length, 13 (NM397, C15 alkyl chain length) and 1 (NM404, C18 alkyl chain length).
In order to decrease liver uptake and prolong the plasma phase, the inventors examined 9 structural analogs of NM324 to identify agents that would display improved tumor-to-background tissue ratios with decreased liver uptake. The new PLE analogs were synthesized and radiolabeled with ^125I for initial image analysis in Copenhagen rats bearing Dunning R3327 prostate tumors. […] NM404 was therefore selected to undergo further imaging and biodistribution analysis in a variety of animal-tumor models.

Another data set has as its system Liver CT-26. Put plainly: Imaging and tissue distribution, tumor model. The data set is classed as in vivo, Mouse xenograft. The conditions noted are these: Colorectal adenocarcinoma.
The mark [4] stands for this setting: 1200 times the anticipated imaging mass dose.

T1 sequence (P02770 25-608): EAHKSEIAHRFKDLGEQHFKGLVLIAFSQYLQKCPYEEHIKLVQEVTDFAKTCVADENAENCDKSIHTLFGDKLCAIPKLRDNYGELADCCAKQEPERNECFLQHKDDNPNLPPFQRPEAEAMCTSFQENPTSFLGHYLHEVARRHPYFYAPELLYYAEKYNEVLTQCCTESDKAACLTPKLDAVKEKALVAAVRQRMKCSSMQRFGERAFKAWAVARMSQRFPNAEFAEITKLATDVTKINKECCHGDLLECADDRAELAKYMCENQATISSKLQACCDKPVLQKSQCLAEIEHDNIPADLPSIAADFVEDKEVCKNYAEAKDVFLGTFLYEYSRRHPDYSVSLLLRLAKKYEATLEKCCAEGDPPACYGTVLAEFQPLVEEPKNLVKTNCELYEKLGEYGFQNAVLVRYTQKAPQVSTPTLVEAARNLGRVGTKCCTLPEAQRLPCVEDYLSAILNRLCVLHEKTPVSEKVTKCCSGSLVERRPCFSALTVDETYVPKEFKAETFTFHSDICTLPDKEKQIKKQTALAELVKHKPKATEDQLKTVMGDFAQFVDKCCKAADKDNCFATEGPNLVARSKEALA

Consider `C[N+](C)(C)CCOP(=O)([O-])OCCCCCCCCCCCCCCCCCCc1ccc(I)cc1` [NM404, 18-(p-iodophenyl)-octadecyl phosphocholine], for which the “circulating radioactivity associated with the albumin fraction” value on albumin fraction came to 88%. For the same compound, the Uptake entry in the data set on Adrenal H-295 is “Yes”; in the data set on Ovarian HTB-77, “Yes”; in the data set with SCC1 and 6 it was “Yes”; in the data set with Mammary MCF-7 it was “Yes”; in the data set on TRAMP prostate, “Yes”; in the data set with Prostate MatLyLu (Adenocarcinoma), “Yes”. For the same compound, the Uptake result with Liver CT-26 is listed as “Yes”. The “distribution phase half life” value in the data set “Blood plasma kinetics” stood at 4.86 h. Also, the “elimination half life time in plasma” value in the data set “Blood plasma kinetics” was “roughly 209 hours”. Moreover, the acute toxicity result in data set [1] (setting [4]) is “well tolerated and no acute toxicities were found”; in [3] (setting [4]) it was “well tolerated and no acute toxicities were found”. Besides, the toxic effects result is recorded as “No significant toxic effects” in data set [1] (female rabbits, single dose 0.04 mg/kg, Study 32, GLP); “No significant toxic effects” in data set [1] (male rabbits, single dose 4 mg/kg, Study 28, GLP); “No significant toxic effects” in [3] (female rats, single dose 0.04 mg/kg, Study 31, GLP); “No significant toxic effects” in data set [3] (male rats, single dose 4 mg/kg, Study 27, GLP). In addition, in data set [2], the “localization in lymph node metastases” value was “localize in lymph node metastases”. For the same compound, in the data set with Prostate MatLyLu (24 and 48 hours after injection), the “tumor visualization by gamma camera scintigraphy” value is on record as “readily visualized”. Moreover, the liver activity result in the data set with Prostate MatLyLu (125I-labeled, initial image screen, compared with NM324) was “much lower liver activity”. In the data set on Prostate MatLyLu (initial screen, FIG. 7), the “duration of tumor retention” value is recorded as “over 20 days”.
